Source: US11925629B2, “Heterocyclic inhibitors of ERK1 and ERK2 and their use in the treatment of cancer” (Asana Biosciences, LLC, priority 2015, dated 2024)
Counter-ions that a name gives are not always drawn. Like-named read-outs stand apart in the source and are kept apart here.

Experiments:
ERK1 = biological target: T1, ERK1 (Homo sapiens, UniProt P27361); experiment: ERK1 HTRF (biochemical) assay
T1 construct: purchased Jubilant Biosys
Experimental: (§1) ERK1 and ERK2 HTRF (Biochemical) Assays
These assays employed a homogeneous time resolved fluorescence (HTRF) technique. […] The plate was incubated at room temperature for 60 min with shaking. […] The IC50 values (half maximal inhibitory concentration values) were subsequently determined using a sigmoidal dose-response curve (variable slope) in GraphPad Prism® 5 software.

ERK2 = biological target: T2, ERK2 (Homo sapiens, UniProt P28482); experiment: ERK2 HTRF (biochemical) assay
T2 construct: purchased Jubilant Biosys
Experimental: as §1
These assays employed a homogeneous time resolved fluorescence (HTRF) technique. The compounds were serially diluted by half-log with concentrations ranging from 0.0005 to 10 uM in the assay buffer (50 mM Tris pH=7.5, 1 mM EGTA, 2 mM DTT, 10 mM MgCl2, 0.100 Tween-20) and 20 uL of substrate-ATP mix [1 uM Biotin-LC-Myelin Basic Protein (MBP) derivatized Peptide (Anaspec)-24 uM ATP (Sigma)] was added to each well of the assay plate. Then 10 uL of enzyme mix [25 nM ERK1 or ERK2 (Jubilant Biosys) in assay buffer] was added to each well. The plate was incubated at room temperature for 60 min with shaking. The HTRF mix [625 nM LANCER Ultra Europium-anti-phospho-MBP (Perkin Elmer) and 2 nM Phycolink® Streptavidin-Allophycocyanin (SA-APC) (Prozyme) in HTRF buffer (50 mM Tris-HCl pH=7.5, 100 mM NaCl, 0.1% BSA, 0.05% Tween20, 0.5 mM EDTA)] was prepared and 75 uL of this mix was added to the HTRF plate. After incubation for 60 min at room temperature, 10 uL of the reaction mixture was transferred to the HTRF assay plate and incubated for 45 min at room temperature with shaking. Plate was read using Pherastar in HTRF mode (excitation 337 nm, emission 665 & 620 nm). The IC50 values (half maximal inhibitory concentration values) were subsequently determined using a sigmoidal dose-response curve (variable slope) in GraphPad Prism® 5 software.

[1] = test system: HT-29 (colorectal carcinoma, B-RafV600E) cells; experiment: Cell proliferation (Alamar Blue) assay, HT-29; format: cell-based, human; conditions: Homo sapiens, HT-29, HT29 cells
In short: (§2)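 5000 cells/well, 16-24 h attach; cpd 0.0005-10 uM (3-fold dilns) x 72 h, 37° C./5% CO2; Alamar Blue 1× 1-3 h; fluor 540/590 nm; IC50, variable-slope sigmoid.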

[2] = test system: HCT116 (colorectal carcinoma, K Ras G13D) cells; experiment: Cell proliferation (Alamar Blue) assay, HCT116; format: cell-based, human
In short: as §2

[3] = test system: phosphorylation of RSK1(S380) (the downstream target of ERK1/2); experiment: Phospho-RSK1(S380) ELISA assay in HT-29 cells; format: cell-based, human; conditions: read-out: Mechanistic Cell Assay RSK1 Phos HT29 IC50
In short: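 IC50 values derive from a variable-slope sigmoidal fit of sandwich-ELISA signal (450 nm) for RSK1 Ser380 phosphorylation. The cells were B-RafV600E HT-29 colorectal line, exposed to serially diluted compound for 2 h after overnight seeding, then lysed at 4° C.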

[4] = Homo sapiens, HCT-116, HCT116 cells
[5] = Homo sapiens, HT-29, HT29 cells, phospho-RSK1(S380)
[6] = Homo sapiens, HT-29, HT29 cells

T1 sequence (P27361 whole entry): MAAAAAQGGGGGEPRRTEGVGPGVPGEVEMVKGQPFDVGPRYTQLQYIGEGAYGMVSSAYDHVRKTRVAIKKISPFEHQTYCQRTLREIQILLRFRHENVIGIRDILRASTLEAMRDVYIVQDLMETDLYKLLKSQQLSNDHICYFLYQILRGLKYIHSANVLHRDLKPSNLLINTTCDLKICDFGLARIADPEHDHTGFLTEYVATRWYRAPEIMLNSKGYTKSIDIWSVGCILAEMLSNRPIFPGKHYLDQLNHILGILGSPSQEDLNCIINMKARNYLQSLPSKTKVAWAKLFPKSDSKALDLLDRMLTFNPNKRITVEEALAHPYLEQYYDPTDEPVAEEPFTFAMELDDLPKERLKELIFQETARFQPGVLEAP
T2 sequence (P28482 whole entry): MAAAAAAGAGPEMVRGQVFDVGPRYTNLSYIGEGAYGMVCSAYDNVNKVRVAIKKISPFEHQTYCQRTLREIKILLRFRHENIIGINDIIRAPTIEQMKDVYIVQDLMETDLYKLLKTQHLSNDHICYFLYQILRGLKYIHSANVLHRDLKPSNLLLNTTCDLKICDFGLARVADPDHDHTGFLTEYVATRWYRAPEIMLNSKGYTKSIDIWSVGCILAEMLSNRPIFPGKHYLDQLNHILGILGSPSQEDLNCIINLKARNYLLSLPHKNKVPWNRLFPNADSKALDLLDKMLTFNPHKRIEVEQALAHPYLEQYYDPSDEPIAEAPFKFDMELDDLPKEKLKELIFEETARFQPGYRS

In the case of `Cc1cnc(NC2CC(F)(F)C2)nc1-n1cnc(C(=O)N[C@H](CN)c2cccc(Cl)c2)c1` [Compound #259, (S)—N-(2-Amino-1-(3-chlorophenyl)ethyl)-1-(2-((3,3-difluorocyclobutyl)amino)-5-methylpyrimidin-4-yl)-1H-imidazole-4-carboxamide], the IC50 (ERK1; HTRF biochemical assay) is reported as < 50 nM, the IC50 (ERK2; HTRF biochemical assay) is reported as ≤ 50 nM and the IC50 [1] is reported as 100 to 250 nM. The IC50 [2, 4] was ≤ 100 nM and the IC50 [3, 5] was 100 to 250 nM.

With `Cc1cnc(NC2CCOCC2)nc1-n1cnc(C(=O)N[C@H](CN)c2cc(F)cc(Cl)c2)c1` [Compound #275, (S)—N-(2-Amino-1-(3-chloro-5-fluorophenyl)ethyl)-1-(5-methyl-2-((tetrahydro-2H-pyran-4-yl)amino)pyrimidin-4-yl)-1H-imidazole-4-carboxamide] the IC50 (ERK1; HTRF biochemical assay) was < 50 nM, the IC50 (ERK2; HTRF biochemical assay) was ≤ 50 nM and the IC50 [1] was ≤ 100 nM. For the same molecule, the IC50 [2, 4] was ≤ 100 nM and the IC50 [3, 5] was ≤ 100 nM.

`Cc1cnc(NC2CCOCC2)nc1-n1cnc(C(=O)N[C@H](CN)c2cccc(Cl)c2)c1` [Compound #298, (S)—N-(2-Amino-1-(3-chlorophenyl)ethyl)-1-(5-methyl-2-((tetrahydro-2H-pyran-4-yl)amino)pyrimidin-4-yl)-1H-imidazole-4-carboxamide hydrochloride salt] was tested, and the IC50 (ERK1; HTRF biochemical assay) was < 50 nM and the IC50 (ERK2; HTRF biochemical assay) was ≤ 50 nM.

For `Cc1cnc(Nc2ccc3c(c2)OC(F)(F)O3)cc1-n1cnc(C(=O)NC(CO)c2ccccc2)c1` (stereo not shown) [Example 86, 1-(2-((2,2-difluoro-benzo[d][1,3]dioxol-5-yl)-amino)-5-methyl-pyridin-4-yl)-N-(2-hydroxy-1-phenyl-ethyl)-1H-imidazole-4-carboxamide], the IC50 (ERK1; HTRF biochemical assay) was 50 to 100 nM, the IC50 (ERK2; HTRF biochemical assay) was 50 to 100 nM and the IC50 [1] was > 2500 nM. The IC50 [2, 4] was > 2500 nM.

With `Cc1cccc(CNC(=O)c2cn(-c3nc(NC4CCOCC4)ncc3C)cn2)n1` [Example 279, 1-(5-methyl-2-((tetrahydro-2H-pyran-4-yl)amino)pyrimidin-4-yl)-N-((6-methylpyridin-2-yl)methyl)-1H-imidazole-4-carboxamide] the IC50 (ERK1; HTRF biochemical assay) was < 50 nM, the IC50 (ERK2; HTRF biochemical assay) was ≤ 50 nM and the IC50 [2, 4] was 500 to 2500 nM. It also gave an IC50 [3, 5] of 100 to 250 nM.

In the case of `Cc1cnc(NC2CCOCC2)nc1-n1cnc(C(=O)N[C@H](CNCCO)c2cccc(Cl)c2)c1` [Example 333, (S)-N-(1-(3-chlorophenyl)-2-((2-hydroxyethyl)amino)ethyl)-1-(5-methyl-2-((tetrahydro-2H-pyran-4-yl)amino)pyrimidin-4-yl)-1H-imidazole-4-carboxamide], the IC50 [1] is reported as ≤ 100 nM, the IC50 [2, 4] is reported as ≤ 100 nM and the IC50 [3, 6] is reported as ≤ 100 nM.

For `Cc1cnc(NC2CCOCC2)nc1-n1cnc(C(=O)NCc2cccc(Cl)c2CCO)c1` [Example 334, N-(3-chloro-2-hydroxyethylbenzyl)-1-(5-methyl-2-((tetrahydro-2H-pyran-4-yl)amino)pyrimidin-4-yl)-1H-imidazole-4-carboxamide], the IC50 [1] was ≤ 100 nM, the IC50 [2, 4] was ≤ 100 nM and the IC50 [3, 6] was ≤ 100 nM.

With `Cc1cnc(NC2CCOCC2)nc1-n1cnc(C(=O)NCc2cccc(CO)c2Cl)c1` [Example 335, N-(2-chloro-3-(hydroxymethyl)benzyl)-1-(5-methyl-2-((tetrahydro-2H-pyran-4-yl)amino)pyrimidin-4-yl)-1H-imidazole-4-carboxamide] the IC50 [1] was 250 to 500 nM, the IC50 [2, 4] was > 2500 nM and the IC50 [3, 6] was 100 to 250 nM.

With `CC[C@H](CO)Nc1ncc(C)c(-n2cnc(C(=O)NCc3cccc(Cl)c3CO)c2)n1` [Example 336, (R)-N-(3-chloro-2-(hydroxymethyl)benzyl)-1-(2-((1-hydroxybutan-2-yl)amino)-5-methylpyrimidin-4-yl)-1H-imidazole-4-carboxamide] the IC50 [1] was ≤ 100 nM, the IC50 [2, 4] was 100 to 250 nM and the IC50 [3, 6] was ≤ 100 nM.

With `Cc1cnc(NC2CCOCC2)nc1-n1cnc(C(=O)N[C@H](CNCC(C)(C)C)c2cccc(Cl)c2)c1` [Example 337, (S)-N-(1-(3-chlorophenyl)-2-(neopentylamino)ethyl)-1-(5-methyl-2-((tetrahydro-2H-pyran-4-yl)amino)pyrimidin-4-yl)-1H-imidazole-4-carboxamide] the IC50 [1] was 100 to 250 nM, the IC50 [2, 4] was 500 to 2500 nM and the IC50 [3, 6] was 100 to 250 nM.

`Cc1cnc(N[C@H]2CCOC2)nc1-n1cnc(C(=O)NCc2cccc(CO)c2Cl)c1` [Example 338, (S)-N-(2-chloro-3-(hydroxymethyl)benzyl)-1-(5-methyl-2-((tetrahydrofuran-3-yl)amino)pyrimidin-4-yl)-1H-imidazole-4-carboxamide] was tested, and the IC50 [1] was > 2500 nM, the IC50 [2, 4] was 500 to 2500 nM and the IC50 [3, 6] was 500 to 2500 nM.

For `Cc1cnc(NC2CCOCC2)nc1-n1cnc(C(=O)N[C@H](CNCC2CC2)c2cccc(Cl)c2)c1` [Example 339, 1-[5-Methyl-2-(tetrahydro-pyran-4-ylamino)-pyrimidin-4-yl]-1H-imidazole-4-carboxylic acid [(S)-1-(3-chloro-phenyl)-2-(cyclopropylmethyl-amino)-ethyl]-amide], the IC50 [1] was ≤ 100 nM, the IC50 [2, 4] was ≤ 100 nM and the IC50 [3, 6] was ≤ 100 nM.

In the case of `CC(=O)OCc1c(Cl)cccc1CNC(=O)c1cn(-c2nc(NC3CCOCC3)ncc2C)cn1` [Example 340, 2-chloro-6-((1-(5-methyl-2-((tetrahydro-2H-pyran-4-yl)amino)pyrimidin-4-yl)-1H-imidazole-4-carboxamido)methyl)benzyl acetate], the IC50 [1] is reported as ≤ 100 nM, the IC50 [2, 4] is reported as ≤ 100 nM and the IC50 [3, 6] is reported as ≤ 100 nM.

With `Cc1cnc(NC2CCOCC2)nc1-n1cnc(C(=O)NC(C)(C)c2cccc(Cl)c2CO)c1` [Example 341, N-(2-(3-chloro-2-(hydroxymethyl)phenyl)propan-2-yl)-1-(5-methyl-2-((tetrahydro-2H-pyran-4-yl)amino)pyrimidin-4-yl)-1H-imidazole-4-] the IC50 [1] was 500 to 2500 nM, the IC50 [2, 4] was 500 to 2500 nM and the IC50 [3, 6] was 250 to 500 nM.

With `CC(=O)OCc1c(Cl)cccc1CNC(=O)c1cn(-c2nc(N[C@H]3CCOC3)ncc2C)cn1` [Example 342, (S)-2-chloro-6-((1-(5-methyl-2-((tetrahydrofuran-3-yl)amino)pyrimidin-4-yl)-1H-imidazole-4-carboxamido)-methyl)benzyl acetate] the IC50 [1] was ≤ 100 nM, the IC50 [2, 4] was ≤ 100 nM and the IC50 [3, 6] was 100 to 250 nM.

For `Cc1cnc(NC2CCOCC2)nc1-n1cnc(C(=O)NCc2ccc(Cl)cc2CO)c1` [Example 343, N-(4-chloro-2-hydroxymethylbenzyl)-1-(5-methyl-2-((tetrahydro-2H-pyran-4-yl)amino)-pyrimidin-4-yl)-1H-imidazole-4-carboxamide], the IC50 [1] was 250 to 500 nM, the IC50 [2, 4] was 250 to 500 nM and the IC50 [3, 6] was 100 to 250 nM.

For `CNCCNC[C@@H](NC(=O)c1cn(-c2nc(NC3CCOCC3)ncc2C)cn1)c1cccc(Cl)c1` [Example 345], the IC50 [1] was 500 to 2500 nM, the IC50 [2, 4] was 500 to 2500 nM and the IC50 [3, 6] was > 2500 nM.

With `CCC(=O)OCc1c(Cl)cccc1CNC(=O)c1cn(-c2nc(N[C@H]3CCOC3)ncc2C)cn1` [Example 346, (S)-2-chloro-6-((1-(5-methyl-2-((tetrahydrofuran-3-yl)amino)pyrimidin-4-yl)-1H-imidazole-4-carboxamido)-methyl)benzyl-propionate] the IC50 (ERK1; HTRF) was 50 to 100 nM and the IC50 (ERK2; HTRF) was ≤ 50 nM.

`Cc1cnc(N[C@H]2CCOC2)nc1-n1cnc(C(=O)NC(C)(C)c2cccc(Cl)c2CO)c1` [Example 347, (S)-N-(2-(3-chloro-2-(hydroxymethyl)-phenyl)propan-2-yl)-1-(5-methyl-2-((tetrahydrofuran-3-yl)amino)pyrimidin-4-yl)-1H-imidazole-4-carboxamide] showed an IC50 (ERK1; HTRF) of 100 to 500 nM and an IC50 (ERK2; HTRF) of 50 to 100 nM.

For “N-(1-(3-chlorophenyl)-2-hydroxypropyl)-1-(5-methyl-2-((tetrahydro-2H-pyran-4-yl)amino)pyrimidin-4-yl)-1H-imidazole-4-carboxamide (isomer #1) [Example 253]”, the IC50 (ERK1; HTRF biochemical assay) was < 50 nM, the IC50 (ERK2; HTRF biochemical assay) was ≤ 50 nM and the IC50 ([2]; HCT116 cells) was > 2500 nM. The IC50 ([3]; HT29 cells, phospho-RSK1(S380)) was 500 to 2500 nM.
